{"source": "patent US6693216B2", "about": "“Calcium double salts” (Nutrinova Nutrition Specialties & Food Ingredients GmbH, priority 2000, dated 2004)", "settings_in_all_cases": "Part II, 1 g/l in apple juice pH 4.5, 25° C.", "key": {"Clostridia": {"test_system": "Clostridia"}, "Bacilli": {"test_system": "Bacilli"}, "Yeasts": {"test_system": "Yeasts"}, "Thermophilic bacilli": {"test_system": "Thermophilic bacilli"}, "Acetic acid bacteria": {"test_system": "Acetic acid bacteria"}, "Gram-negative bacteria": {"test_system": "Gram-negative bacteria"}, "Molds I": {"test_system": "Molds I"}, "Lactic acid bacteria": {"test_system": "Lactic acid bacteria"}, "Molds II": {"test_system": "Molds II"}, "Gram-positive bacteria": {"test_system": "Gram-positive bacteria"}, "[1]": {"settings": "1 day after inoculation (2.7 × 10^4)"}, "[2]": {"settings": "3 days after inoculation (2.7 × 10^4)"}, "[3]": {"settings": "7 days after inoculation (2.7 × 10^4)"}, "[4]": {"settings": "14 days after inoculation (2.7 × 10^4)"}}, "note": "Read-outs that look alike come from different tables or passages of the source."}
{"smiles": "O=C[O-].O=C[O-].[Ca+2]", "note": "[Calcium Formate]", "values": [{"measurement": "Number of surviving microorganisms per g of contaminated sample, Clostridia", "setting": "Clostridia; 1 day after inoculation (2.9 × 10^4)", "value": "4.0 × 10^2 CFU/g"}, {"measurement": "Number of surviving microorganisms per g of contaminated sample, Clostridia", "setting": "Clostridia; 3 days after inoculation (2.9 × 10^4)", "value": "2.0 × 10^2 CFU/g"}, {"measurement": "Number of surviving microorganisms per g of contaminated sample, Clostridia", "setting": "Clostridia; 7 days after inoculation (2.9 × 10^4)", "value": "<100", "unit": "CFU/g"}, {"measurement": "Number of surviving microorganisms per g of contaminated sample, Clostridia", "setting": "Clostridia; 14 days after inoculation (2.9 × 10^4)", "value": 10, "unit": "CFU/g"}, {"measurement": "Number of surviving microorganisms per g of contaminated sample, Bacilli", "setting": "Bacilli; 1 day after inoculation (3.3 × 10^4)", "value": "1.7 × 10^3 CFU/g"}, {"measurement": "Number of surviving microorganisms per g of contaminated sample, Bacilli", "setting": "Bacilli; 3 days after inoculation (3.3 × 10^4)", "value": "1.5 × 10^3 CFU/g"}, {"measurement": "Number of surviving microorganisms per g of contaminated sample, Bacilli", "setting": "Bacilli; 7 days after inoculation (3.3 × 10^4)", "value": "1.4 × 10^3 CFU/g"}, {"measurement": "Number of surviving microorganisms per g of contaminated sample, Bacilli", "setting": "Bacilli; 14 days after inoculation (3.3 × 10^4)", "value": "1.7 × 10^3 CFU/g"}, {"measurement": "Number of surviving microorganisms per g of contaminated sample, Yeasts", "setting": "Yeasts; 1 day after inoculation (2.6 × 10^4)", "value": "7.4 × 10^5 CFU/g"}, {"measurement": "Number of surviving microorganisms per g of contaminated sample, Yeasts", "setting": "Yeasts; 3 days after inoculation (2.6 × 10^4)", "value": "1.0 × 10^6 CFU/g"}, {"measurement": "Number of surviving microorganisms per g of contaminated sample, Yeasts", "setting": "Yeasts; 7 days after inoculation (2.6 × 10^4)", "value": ">3.0 × 10^6 CFU/g"}, {"measurement": "Number of surviving microorganisms per g of contaminated sample, Yeasts", "setting": "Yeasts; 14 days after inoculation (2.6 × 10^4)", "value": ">3.0 × 10^6 CFU/g"}, {"measurement": "Number of surviving microorganisms per g of contaminated sample, Thermophilic bacilli", "setting": "Thermophilic bacilli; 1 day after inoculation (1.3 × 10^4)", "value": "2.3 × 10^3 CFU/g"}, {"measurement": "Number of surviving microorganisms per g of contaminated sample, Thermophilic bacilli", "setting": "Thermophilic bacilli; 3 days after inoculation (1.3 × 10^4)", "value": "8.0 × 10^2 CFU/g"}, {"measurement": "Number of surviving microorganisms per g of contaminated sample, Thermophilic bacilli", "setting": "Thermophilic bacilli; 7 days after inoculation (1.3 × 10^4)", "value": "6.0 × 10^2 CFU/g"}, {"measurement": "Number of surviving microorganisms per g of contaminated sample, Thermophilic bacilli", "setting": "Thermophilic bacilli; 14 days after inoculation (1.3 × 10^4)", "value": "<10", "unit": "CFU/g"}, {"measurement": "Number of surviving microorganisms per g of contaminated sample, Acetic acid bacteria", "setting": "Acetic acid bacteria; 1 day after inoculation (2.8 × 10^4)", "value": "8.7 × 10^5 CFU/g"}, {"measurement": "Number of surviving microorganisms per g of contaminated sample, Acetic acid bacteria", "setting": "Acetic acid bacteria; 3 days after inoculation (2.8 × 10^4)", "value": "2.5 × 10^6 CFU/g"}, {"measurement": "Number of surviving microorganisms per g of contaminated sample, Acetic acid bacteria", "setting": "Acetic acid bacteria; 7 days after inoculation (2.8 × 10^4)", "value": ">3.0 × 10^6 CFU/g"}, {"measurement": "Number of surviving microorganisms per g of contaminated sample, Acetic acid bacteria", "setting": "Acetic acid bacteria; 14 days after inoculation (2.8 × 10^4)", "value": ">3.0 × 10^6 CFU/g"}, {"measurement": "Number of surviving microorganisms per g of contaminated sample, Gram-negative bacteria", "setting": "Gram-negative bacteria; [1]", "value": "1.5 × 10^4 CFU/g"}, {"measurement": "Number of surviving microorganisms per g of contaminated sample, Gram-negative bacteria", "setting": "Gram-negative bacteria; [2]", "value": "3.6 × 10^3 CFU/g"}, {"measurement": "Number of surviving microorganisms per g of contaminated sample, Gram-negative bacteria", "setting": "Gram-negative bacteria; [3]", "value": "2.3 × 10^3 CFU/g"}, {"measurement": "Number of surviving microorganisms per g of contaminated sample, Gram-negative bacteria", "setting": "Gram-negative bacteria; [4]", "value": 75, "unit": "CFU/g"}, {"measurement": "Number of surviving microorganisms per g of contaminated sample, Molds I", "setting": "Molds I; 1 day after inoculation (2.2 × 10^4)", "value": "4.1 × 10^3 CFU/g"}, {"measurement": "Number of surviving microorganisms per g of contaminated sample, Molds I", "setting": "Molds I; 3 days after inoculation (2.2 × 10^4)", "value": "2.9 × 10^3 CFU/g"}, {"measurement": "Number of surviving microorganisms per g of contaminated sample, Molds I", "setting": "Molds I; 7 days after inoculation (2.2 × 10^4)", "value": "1.9 × 10^3 CFU/g"}, {"measurement": "Number of surviving microorganisms per g of contaminated sample, Molds I", "setting": "Molds I; 14 days after inoculation (2.2 × 10^4)", "value": "2.6 × 10^3 CFU/g"}, {"measurement": "Number of surviving microorganisms per g of contaminated sample, Lactic acid bacteria", "setting": "Lactic acid bacteria; [1]", "value": "4.4 × 10^3 CFU/g"}, {"measurement": "Number of surviving microorganisms per g of contaminated sample, Lactic acid bacteria", "setting": "Lactic acid bacteria; [2]", "value": "2.5 × 10^4 CFU/g"}, {"measurement": "Number of surviving microorganisms per g of contaminated sample, Lactic acid bacteria", "setting": "Lactic acid bacteria; [3]", "value": ">3.0 × 10^6 CFU/g"}, {"measurement": "Number of surviving microorganisms per g of contaminated sample, Lactic acid bacteria", "setting": "Lactic acid bacteria; [4]", "value": ">3.0 × 10^6 CFU/g"}, {"measurement": "Number of surviving microorganisms per g of contaminated sample, Molds II", "setting": "Molds II; 1 day after inoculation (2.5 × 10^4)", "value": "1.0 × 10^4 CFU/g"}, {"measurement": "Number of surviving microorganisms per g of contaminated sample, Molds II", "setting": "Molds II; 3 days after inoculation (2.5 × 10^4)", "value": "1.5 × 10^3 CFU/g"}, {"measurement": "Number of surviving microorganisms per g of contaminated sample, Molds II", "setting": "Molds II; 7 days after inoculation (2.5 × 10^4)", "value": ">3.0 × 10^4 CFU/g"}, {"measurement": "Number of surviving microorganisms per g of contaminated sample, Molds II", "setting": "Molds II; 14 days after inoculation (2.5 × 10^4)", "value": "3.9 × 10^5 CFU/g"}, {"measurement": "Number of surviving microorganisms per g of contaminated sample, Gram-positive bacteria", "setting": "Gram-positive bacteria; 1 day after inoculation (2.1 × 10^4)", "value": "2.2 × 10^4 CFU/g"}, {"measurement": "Number of surviving microorganisms per g of contaminated sample, Gram-positive bacteria", "setting": "Gram-positive bacteria; 3 days after inoculation (2.1 × 10^4)", "value": "8.9 × 10^3 CFU/g"}, {"measurement": "Number of surviving microorganisms per g of contaminated sample, Gram-positive bacteria", "setting": "Gram-positive bacteria; 7 days after inoculation (2.1 × 10^4)", "value": "4.6 × 10^3 CFU/g"}, {"measurement": "Number of surviving microorganisms per g of contaminated sample, Gram-positive bacteria", "setting": "Gram-positive bacteria; 14 days after inoculation (2.1 × 10^4)", "value": "2.0 × 10^3 CFU/g"}]}
